Experimental data: US20090209615A1, “INHIBITORS OF MATRIX METALLOPROTEINASES TO TREAT NEUROLOGICAL DISORDERS” (priority 2004, published 2009)
“Also recorded” adds a separate entry of the source. Like-named read-outs stand apart in the source and are kept apart here.

Experiments:
[1] = tested on: C57BL/6J mice, MCA occlusion/reperfusion; test: Transient focal cerebral ischemia (MCA occlusion/reperfusion): infarct volume and neurological deficits; type: in vivo
[2] = target: T1, MMP-9 (Mus musculus, UniProt P41245); test: MMP-9 activity in ischemic mouse brain after treatment in vivo (in situ zymography, gelatin zymography, Western blot); set-up: species or system C57BL/6J mice; conditions: SB-3CT-treated mice, 2-hr MCA occlusion and 24-hr reperfusion
T1 construct: from tissue; host or cells: brain of C57BL/6J mice after MCA occlusion/reperfusion

[3] = tested on: MMP-9; test: as above; set-up: species or system C57BL/6J mice
[4] = tested on: laminin; test: Laminin degradation in the ischemic hemisphere after MCAO/R (Western blot, immunostaining); type: in vivo, mouse; conditions: for laminin degradation in the ischemic hemisphere (Western blot, 51 kDa fragment): SB-3CT-treated mice after transient MCAO/R
[5] = Physiological variables and regional cerebral blood flow in MCAO mice; conditions: for Ca^2+ / Glucose / MABP / Na^+ / PCO2 / PO2 / pH: mean ± SEM (n = 5); for regional cerebral blood flow (rCBF), laser Doppler flowmetry: MCAO and reperfusion; for pH: arterial blood
[6] = target: R-proMMP-9 (Homo sapiens, UniProt P14780); test: Activation of R-proMMP-9 in vitro (gelatin zymography, fluorogenic peptide cleavage)
[7] = Stability of S-nitrosothiols (NAT conversion from DAN)
[8] = tested on: MMP gelatinolytic activity in the ischemic cortex; test: In situ zymography of ischemic brain sections treated with MMP inhibitors; type: biochemical, mouse; conditions: brain sections after MCA occlusion/reperfusion treated with inhibitor
Method: In situ zymography with the MMP fluorogenic substrate DQ-gelatin-FITC (Molecular Probes) was performed on fresh cryostat sections of mouse brains harvested after MCA ischemia and reperfusion (A to J). […] A, C, E, and G represent fluorogenic substrate (green), reflecting MMP activity in situ. B, D, F, H, I, and J are merged images of the fluorogenic substrate and Hoechst dye counterstaining to identify nuclei.
A, In situ zymography with the MMP fluorogenic substrate DQ-gel (green in top panels) merged with nuclear DNA staining by Hoechst dye (blue plus green in bottom panels).

[9] = target: T2, MMP-9 (Homo sapiens, UniProt P14780); test: Ex vivo degradation of neuronal laminin by exogenous MMP-9 in mouse-brain sections; type: biochemical
Target sequence in this assay (P14780 107-707 limits assumed, species assumed): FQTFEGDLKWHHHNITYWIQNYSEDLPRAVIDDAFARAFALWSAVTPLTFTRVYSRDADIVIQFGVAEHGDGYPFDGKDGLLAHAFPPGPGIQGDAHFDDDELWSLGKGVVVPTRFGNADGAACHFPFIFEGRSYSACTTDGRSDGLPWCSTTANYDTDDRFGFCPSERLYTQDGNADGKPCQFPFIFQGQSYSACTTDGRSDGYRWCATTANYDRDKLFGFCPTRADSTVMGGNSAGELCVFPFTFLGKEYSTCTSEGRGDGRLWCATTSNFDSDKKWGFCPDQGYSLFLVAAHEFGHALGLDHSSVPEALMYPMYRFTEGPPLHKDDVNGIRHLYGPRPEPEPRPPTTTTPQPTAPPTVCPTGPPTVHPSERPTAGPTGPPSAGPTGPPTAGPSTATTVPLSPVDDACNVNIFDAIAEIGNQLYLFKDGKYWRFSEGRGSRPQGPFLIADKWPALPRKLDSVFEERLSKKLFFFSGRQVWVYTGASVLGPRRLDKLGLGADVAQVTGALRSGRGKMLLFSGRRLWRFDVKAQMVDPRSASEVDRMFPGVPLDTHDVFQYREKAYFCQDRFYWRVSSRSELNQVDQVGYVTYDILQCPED
Method: Purified mouse Engelbreth-Holm-Swarm laminin (ms EHS Ln) served as a molecular marker for laminin immunoblotting. The membrane was reblotted with anti-actin antibody to ensure equal protein loading in each lane.
Ex vivo laminin degradation and Western blots. Brain lysates (50 mg of total protein in TBS with 0.05% Brij 35) were incubated overnight at 37° C. with activated MMP-9, latent preform of MMP-9 (proMMP-9), or the catalytic domain of membrane type 1 (MT1)-MMP. […] Laminin and MMP-9 were analyzed by immunoblotting using rabbit pan-laminin (pan-Ln) and MMP-9 antibodies (from Sigma (St. Louis, Mo.) and Calbiochem (La Jolla, Calif.), respectively), followed by peroxidase-conjugated anti-rabbit IgG antibody. Peroxidase was visualized by enhanced chemiluminescence (Amersham Biosciences).

[10] = tested on: cerebrocortical neurons; test: Neuronal apoptosis induced by SNOC-activated MMP-9 in cerebrocortical cultures; type: cell-based; conditions: R-proMMP-9 pre-activated by SNOC, 18 hours
[11] = target: T3, MMP-2 (Homo sapiens, UniProt P08253); conditions: high-affinity site for TIMPs, Olson et al. 1997; cited from earlier work
T3 sequence (P08253 110-660): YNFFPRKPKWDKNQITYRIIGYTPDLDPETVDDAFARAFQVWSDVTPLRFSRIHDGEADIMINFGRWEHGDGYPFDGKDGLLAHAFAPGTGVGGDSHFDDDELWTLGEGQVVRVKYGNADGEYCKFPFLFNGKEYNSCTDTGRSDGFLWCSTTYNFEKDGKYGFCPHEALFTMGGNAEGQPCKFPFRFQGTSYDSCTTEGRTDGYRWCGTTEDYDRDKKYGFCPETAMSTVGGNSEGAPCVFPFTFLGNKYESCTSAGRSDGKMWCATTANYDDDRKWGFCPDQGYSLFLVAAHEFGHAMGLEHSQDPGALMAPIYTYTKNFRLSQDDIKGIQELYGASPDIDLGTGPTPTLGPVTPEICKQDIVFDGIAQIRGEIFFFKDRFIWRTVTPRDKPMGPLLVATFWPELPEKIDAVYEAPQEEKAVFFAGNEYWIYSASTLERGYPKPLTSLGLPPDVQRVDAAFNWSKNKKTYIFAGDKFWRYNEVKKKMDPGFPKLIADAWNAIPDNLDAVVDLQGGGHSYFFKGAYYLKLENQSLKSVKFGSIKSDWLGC

[12] = target: T2, MMP-9; conditions: high-affinity site for TIMPs, Olson et al. 1997; cited from earlier work
Target sequence in this assay (P14780 107-707 limits assumed): as the sequence (P14780 107-707 limits assumed, species assumed) above

R-proMMP-9, sequence (P14780 20-444 limits assumed): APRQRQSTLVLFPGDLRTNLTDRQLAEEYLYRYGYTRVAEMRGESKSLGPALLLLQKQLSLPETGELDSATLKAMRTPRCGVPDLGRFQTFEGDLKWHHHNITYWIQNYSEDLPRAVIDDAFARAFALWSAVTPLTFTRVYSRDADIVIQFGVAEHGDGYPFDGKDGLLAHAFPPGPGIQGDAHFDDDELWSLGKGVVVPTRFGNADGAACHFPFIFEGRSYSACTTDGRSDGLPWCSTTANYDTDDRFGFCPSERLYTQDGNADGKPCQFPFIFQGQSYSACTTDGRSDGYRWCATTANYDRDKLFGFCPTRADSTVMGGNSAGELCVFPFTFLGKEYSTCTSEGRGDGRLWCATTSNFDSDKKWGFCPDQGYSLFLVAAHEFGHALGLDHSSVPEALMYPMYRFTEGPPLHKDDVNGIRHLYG

Molecule: O=S(=O)(CCC1CO1)c1ccc(Oc2ccccc2)cc1 (stereo not shown) [Compound 5, 2-(4-Phenoxyphenylsulfonyl)ethyloxirane]
- melting point: 75 to 77 °C

Molecule: O=S(=O)(CC1CS1)c1ccc(Oc2ccccc2)cc1 (stereo not shown) [Compound 1, (4-Phenoxyphenylsulfonyl)methylthiirane]
- infarct volume (TTC staining) ([1]; 25 mg/kg i.p. twice, 30 minutes before MCAO and 2 hours after MCAO, 2-hour MCAO, 24-hour reperfusion, vs vehicle, P<0.004 (FIG. 9), listed as SB3CT): decreases infarct volume; also recorded: protects the ischemic brain
- infarct volume (TTC staining) ([1]; 25 mg/kg i.p., 24 h after reperfusion, vs vehicle-treated controls, p<0.001 (FIG. 14C)): decreased infarct volume
- infarct volume ([1]; 25 mg/kg i.p., administration 6 h after ischemia, compared with 55% in vehicle-treated animals): 40%
- infarct volume ([1]; 25 mg/kg i.p., first injection 2 h postischemic, second 3 h later, 24 h after reperfusion): 30 % of control
- infarct volume ([1]; 25 mg/kg i.p., preischemic injection (30 min before ischemia, second immediately before reperfusion), 24 h after reperfusion): 30 % of control
- neurological behavioral score ([1]; 24 h after MCA occlusion/reperfusion, vs vehicle-treated controls, p<0.02 (FIG. 14D)): significantly improved neurological function
- neurological behavioral outcomes (deficit score 0-4) ([1]; 24 hours after focal MCAO and reperfusion, vs vehicle, P<0.01 (FIG. 9C), listed as SB3CT): significantly reduced neurological deficit outcomes; also recorded: improved
- behavioral scores (five-point scale) ([1]; treated 2 h after ischemia, 24 h after reperfusion): significant improvement in behavioral scores
- behavioral scores (five-point scale) ([1]; treated before ischemia, 24 h after reperfusion): significant improvement in behavioral scores
- active MMP-9 in ischemic brain (gelatin zymography, Western blot) ([2]; listed as SB3CT): attenuated the increase; also recorded: can prevent activation of MMP-9
- proMMP-9 in ischemic brain (gelatin zymography, Western blot) ([2]; listed as SB3CT): attenuated the increase
- active MMP-9 in ischemic brain (gelatin zymography, Western blot) ([2]; listed as SB-3CT): attenuated the increase; also recorded: significantly decreased
- proMMP-9 in ischemic brain (gelatin zymography, Western blot) ([2]; listed as SB-3CT): attenuated the increase; also recorded: also decreased
- MMP gelatinolytic activity in the ischemic region (in situ zymography, deconvolution microscopy) ([3]; SB-3CT-treated mice vs vehicle-treated control, after MCAO/reperfusion): significantly reduced
- laminin degradation in the ischemic hemisphere (Western blot, 51 kDa fragment) ([4]; listed as SB3CT): attenuated laminin degradation products
- laminin degradation in the ischemic hemisphere (Western blot, 51 kDa fragment) ([4]; listed as SB-3CT): decreased laminin degradation; also recorded: reduced
- Ca^2+ ([5]; After MCAO): 1.100 ± 0.074 mmol/L
- Glucose ([5]; After MCAO): 154.3 ± 12.6 mg/dL
- MABP ([5]; After MCAO): 76.12 ± 2.89 mmHg
- Na^+ ([5]; After MCAO): 157.7 ± 2.0 mmol/L
- PCO2 ([5]; After MCAO): 43.90 ± 5.28 mmHg
- PO2 ([5]; After MCAO): 245.4 ± 24.0 mmHg
- Ca^2+ ([5]; Before MCAO): 1.150 ± 0.021 mmol/L
- Glucose ([5]; Before MCAO): 160.7 ± 13.2 mg/dL
- MABP ([5]; Before MCAO): 78.68 ± 3.17 mmHg
- Na^+ ([5]; Before MCAO): 155.7 ± 1.8 mmol/L
- PCO2 ([5]; Before MCAO): 40.70 ± 7.828 mmHg
- PO2 ([5]; Before MCAO): 230.8 ± 31.7 mmHg
- Ca^2+ ([5]; During MCAO): 1.117 ± 0.081 mmol/L
- Glucose ([5]; During MCAO): 162.70 ± 13.3 mg/dL
- MABP ([5]; During MCAO): 79.49 ± 3.48 mmHg
- Na^+ ([5]; During MCAO): 157.20 ± 0.5 mmol/L
- PCO2 ([5]; During MCAO): 44.95 ± 14.55 mmHg
- PO2 ([5]; During MCAO): 214.5 ± 10.3 mmHg
- regional cerebral blood flow (rCBF), laser Doppler flowmetry ([5]; vs vehicle-treated controls, listed as SB3CT): no significant differences; also recorded: unaffected
- regional cerebral blood flow (rCBF), laser Doppler flowmetry ([5]; vs vehicle-treated controls, listed as SB-3CT): no significant differences
- pH ([5]; After MCAO): 7.170 ± 0.027
- pH ([5]; Before MCAO): 7.313 ± 0.060
- pH ([5]; During MCAO): 7.106 ± 0.025
- physiological parameters including arterial blood gases and glucose ([5]; vs vehicle-treated controls): did not affect

Molecule: O=[N+]([O-])c1cccc2c(Br)n[nH]c12 [3-bromo-7-nitroindazole, reference compound]
- MMP activity in the ischemic cortex (in situ zymography) ([3]; 30 mg/kg body weight i.p. prior to ischemia, wild-type mice): abrogated
- laminin degradation in the ischemic cortex (laminin immunoreactivity) ([4]; wild-type mice treated with nNOS inhibitor, after MCA occlusion/reperfusion): attenuated; also recorded: blockage of laminin degradation

Molecule: O=NO [acidified sodium nitrite, sodium nitrite]
- conversion of R-proMMP-9 into the activated form (gelatin zymography) [6]: partial conversion

Molecule: N[C@@H](CSN=O)C(=O)O [SNOC, S-nitrosocysteine]
- half-life at 200 μM [7]: < 10 min
- decayed ([7]; within 15 min of incubation): over 95%
- conversion of R-proMMP-9 into the activated form (gelatin zymography) ([6]; R-proMMP-9 100 ng/ml, 200 μM agent, 18 hours, room temperature): partial conversion
- initial velocity of R-proMMP-9 activation ([6]; cleavage of synthetic fluorogenic peptide substrate): 0.88 µM/h

Molecule: CNC(=O)[C@H](Cc1c[nH]c2ccccc12)NC(=O)[C@@H](CC(=O)NO)CC(C)C [GM6001]
- MMP gelatinolytic activity in the ischemic cortex (in situ zymography) [8]: reduced; also recorded: abrogated; also recorded: can prevent activation of MMP-9
- degradation of neuronal laminin by activated MMP-9 [9]: significantly reduced laminin degradation; also recorded: inhibited MMP-9 proteolysis of neuronal laminin
- neuronal apoptosis [10]: abrogated the effect; also recorded: blocked the neuronal cell death

Molecule: TIMP-1: endogenous cellular protein inhibitor of MMPs (tissue inhibitor of metalloproteinases)
- Ki [11]: 29 ± 5 nM
- Ki [12]: 24 ± 4 nM

Molecule: c1cnc2c(c1)ccc1cccnc12 [1,10-phenanthroline]
- MMP gelatinolytic activity in the ischemic cortex (in situ zymography) [8]: reduced; also recorded: abrogated
- MMP gelatinolytic activity in the ischemic cortex (in situ zymography) ([8]; listed as 1/10-phenanthroline): can prevent activation of MMP-9
